Measured values reported in PubChem BioAssay (NCI).
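Values below derive from 48-hour exposures of cells grown in 96-well plates, with endpoints linearly interpolated between the two concentrations bracketing the appropriate inhibition level. Here, GI50 denotes the concentration required for 50% inhibition of growth. At the TGI there is no net growth.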

Experiments:
Assay in all cases: NCI-60 cell line screen, 48 h
HCT-15 colon = tested on: HCT-15 colon
TK-10 renal = tested on: TK-10 renal
HOP-62 NSCLC = tested on: HOP-62 NSCLC
SF-268 CNS = tested on: SF-268 CNS
OVCAR-3 ovarian = tested on: OVCAR-3 ovarian
KM12 colon = tested on: KM12 colon
UO-31 renal = tested on: UO-31 renal
IGROV1 ovarian = tested on: IGROV1 ovarian
A498 renal = tested on: A498 renal
SF-295 CNS = tested on: SF-295 CNS
MALME-3M melanoma = tested on: MALME-3M melanoma
MDA-MB-231 breast = tested on: MDA-MB-231 breast
COLO 205 colon = tested on: COLO 205 colon
MDA-MB-435 = tested on: MDA-MB-435
SN12C renal = tested on: SN12C renal
CCRF-CEM leukemia = tested on: CCRF-CEM leukemia
SR leukemia = tested on: SR leukemia
MCF7 breast = tested on: MCF7 breast
ACHN renal = tested on: ACHN renal
OVCAR-8 ovarian = tested on: OVCAR-8 ovarian
HCC-2998 colon = tested on: HCC-2998 colon
LOX IMVI melanoma = tested on: LOX IMVI melanoma
RXF 393 renal = tested on: RXF 393 renal
NCI-H460 lung = tested on: NCI-H460 lung
NCI/ADR-RES ovarian = tested on: NCI/ADR-RES ovarian
SF-539 CNS = tested on: SF-539 CNS
NCI-H522 lung = tested on: NCI-H522 lung
UACC-62 melanoma = tested on: UACC-62 melanoma
RPMI-8226 leukemia = tested on: RPMI-8226 leukemia
OVCAR-5 ovarian = tested on: OVCAR-5 ovarian
NCI-H23 lung = tested on: NCI-H23 lung
BT-549 breast = tested on: BT-549 breast
M14 melanoma = tested on: M14 melanoma
786-0 renal = tested on: 786-0 renal
HL-60(TB) leukemia = tested on: HL-60(TB) leukemia
K-562 leukemia = tested on: K-562 leukemia
EKVX NSCLC = tested on: EKVX NSCLC
SK-MEL-28 melanoma = tested on: SK-MEL-28 melanoma
SK-MEL-5 melanoma = tested on: SK-MEL-5 melanoma
HS 578T breast = tested on: HS 578T breast
SNB-19 CNS = tested on: SNB-19 CNS
A549 NSCLC = tested on: A549 NSCLC
NCI-H226 lung = tested on: NCI-H226 lung
HCT-116 colon = tested on: HCT-116 colon
HT29 colon = tested on: HT29 colon
PC-3 prostate = tested on: PC-3 prostate
U251 CNS = tested on: U251 CNS
CAKI-1 renal = tested on: CAKI-1 renal
SK-OV-3 ovarian = tested on: SK-OV-3 ovarian
UACC-257 melanoma = tested on: UACC-257 melanoma
DU-145 prostate = tested on: DU-145 prostate
MOLT-4 leukemia = tested on: MOLT-4 leukemia
SW-620 colon = tested on: SW-620 colon
SK-MEL-2 melanoma = tested on: SK-MEL-2 melanoma
SNB-75 CNS = tested on: SNB-75 CNS
OVCAR-4 ovarian = tested on: OVCAR-4 ovarian
T-47D breast = tested on: T-47D breast

[N-]=[N+]=NCCCn1c2c(c3ccc([N+](=O)[O-])cc3c1=O)C(=O)c1cc(F)ccc1-2
GI50 (HCT-15 colon): 5.86 µM
TGI (HCT-15 colon): > 100 µM
GI50 (TK-10 renal): 16.7 µM
TGI (TK-10 renal): > 100 µM
GI50 (HOP-62 NSCLC): 0.32 µM
TGI (HOP-62 NSCLC): 7.04 µM
TGI (SF-268 CNS): 4.32 µM
GI50 (OVCAR-3 ovarian): 3.76 µM
TGI (OVCAR-3 ovarian): 26 µM
GI50 (KM12 colon): 2.13 µM
TGI (KM12 colon): > 26.2 µM
GI50 (UO-31 renal): 0.807 µM
TGI (UO-31 renal): 12.6 µM
GI50 (IGROV1 ovarian): 2.3 µM
TGI (IGROV1 ovarian): > 30.2 µM
GI50 (A498 renal): 11.8 µM
TGI (A498 renal): 72.2 µM
GI50 (SF-295 CNS): 0.338 µM
TGI (SF-295 CNS): 9.94 µM
GI50 (MALME-3M melanoma): 3.46 µM
TGI (MALME-3M melanoma): 19.8 µM
GI50 (MDA-MB-231 breast): 30.3 µM
TGI (MDA-MB-231 breast): > 100 µM
GI50 (COLO 205 colon): 9.26 µM
TGI (COLO 205 colon): > 100 µM
GI50 (MDA-MB-435): 4.15 µM
TGI (MDA-MB-435): > 86.4 µM
GI50 (SN12C renal): 0.703 µM
GI50 (CCRF-CEM leukemia): 0.432 µM
TGI (CCRF-CEM leukemia): 3.88 µM
GI50 (SR leukemia): 0.113 µM
TGI (SR leukemia): 2.86 µM
GI50 (MCF7 breast): 0.311 µM
TGI (MCF7 breast): > 55.1 µM
GI50 (ACHN renal): 0.269 µM
TGI (ACHN renal): 1.55 µM
GI50 (OVCAR-8 ovarian): 2.67 µM
TGI (OVCAR-8 ovarian): > 100 µM
GI50 (HCC-2998 colon): 14.5 µM
TGI (HCC-2998 colon): > 100 µM
GI50 (LOX IMVI melanoma): 0.343 µM
TGI (LOX IMVI melanoma): 1.86 µM
GI50 (RXF 393 renal): 4.32 µM
TGI (RXF 393 renal): 54.6 µM
GI50 (NCI-H460 lung): 0.132 µM
TGI (NCI-H460 lung): 2.34 µM
GI50 (NCI/ADR-RES ovarian): 1.46 µM
TGI (NCI/ADR-RES ovarian): > 49 µM
GI50 (SF-539 CNS): 2.38 µM
TGI (SF-539 CNS): > 100 µM
GI50 (NCI-H522 lung): 0.853 µM
TGI (NCI-H522 lung): 12.2 µM
GI50 (UACC-62 melanoma): 0.523 µM
TGI (UACC-62 melanoma): 3.55 µM
GI50 (RPMI-8226 leukemia): 0.237 µM
TGI (RPMI-8226 leukemia): 1.28 µM
GI50 (OVCAR-5 ovarian): 14.4 µM
TGI (OVCAR-5 ovarian): > 100 µM
GI50 (NCI-H23 lung): 2.69 µM
TGI (NCI-H23 lung): 19 µM
GI50 (BT-549 breast): 5.37 µM
TGI (BT-549 breast): > 100 µM
GI50 (M14 melanoma): 1.13 µM
TGI (M14 melanoma): 11.1 µM
GI50 (786-0 renal): 0.334 µM
TGI (786-0 renal): 2.01 µM
GI50 (HL-60(TB) leukemia): 0.202 µM
TGI (HL-60(TB) leukemia): 1.64 µM
GI50 (K-562 leukemia): 1.25 µM
TGI (K-562 leukemia): > 100 µM
GI50 (EKVX NSCLC): 61.2 µM
TGI (EKVX NSCLC): > 100 µM
GI50 (SK-MEL-28 melanoma): 11.9 µM
TGI (SK-MEL-28 melanoma): > 100 µM
GI50 (SK-MEL-5 melanoma): 0.803 µM
TGI (SK-MEL-5 melanoma): 3.16 µM
GI50 (HS 578T breast): 36.5 µM
TGI (HS 578T breast): > 100 µM
GI50 (SNB-19 CNS): 1.05 µM
TGI (SNB-19 CNS): > 100 µM
GI50 (A549 NSCLC): 5.14 µM
TGI (A549 NSCLC): > 100 µM
GI50 (NCI-H226 lung): 2.26 µM
TGI (NCI-H226 lung): > 46.8 µM
GI50 (HCT-116 colon): 0.388 µM
TGI (HCT-116 colon): 3.3 µM
GI50 (HT29 colon): 1.24 µM
TGI (HT29 colon): > 35.2 µM
GI50 (PC-3 prostate): 1.25 µM
TGI (PC-3 prostate): 43.2 µM
GI50 (U251 CNS): 0.539 µM
TGI (U251 CNS): 8.89 µM
GI50 (CAKI-1 renal): 0.288 µM
TGI (CAKI-1 renal): 4.68 µM
GI50 (SK-OV-3 ovarian): 2.82 µM
TGI (SK-OV-3 ovarian): 19.3 µM
GI50 (UACC-257 melanoma): 10.3 µM
TGI (UACC-257 melanoma): > 100 µM
GI50 (DU-145 prostate): 0.547 µM
TGI (DU-145 prostate): > 63.5 µM
GI50 (MOLT-4 leukemia): 0.245 µM
TGI (MOLT-4 leukemia): 2.7 µM
GI50 (SW-620 colon): 1.76 µM
TGI (SW-620 colon): > 100 µM
GI50 (SK-MEL-2 melanoma): 9.24 µM
TGI (SK-MEL-2 melanoma): > 75.1 µM
GI50 (SNB-75 CNS): 2.13 µM
TGI (SNB-75 CNS): 29 µM
GI50 (OVCAR-4 ovarian): 16.2 µM
TGI (OVCAR-4 ovarian): > 95.7 µM
GI50 (T-47D breast): 0.295 µM
TGI (T-47D breast): 3.08 µM
